The results in this text go back to patent publication EP2914280B1, “SOMATOSTATIN-DOPAMINE CHIMERIC ANALOGS” (IPSEN PHARMA S.A.S., priority 2012, dated 2014).

In general, Emax refers to the greatest response seen or fitted, relative to the assay's reference. Usually Ki stands for the equilibrium dissociation constant of an inhibitor or competing ligand from its target.

The target in test [1] is T1, hDRD2 (Homo sapiens, UniProt P14416). Nature of the test: cell-based. The conditions noted are these: read-out: hDRD2 %Emax ± SEM. More on the design: host or cells: 'Cells expressing hDRD2'.
T1 sequence (P14416 whole entry): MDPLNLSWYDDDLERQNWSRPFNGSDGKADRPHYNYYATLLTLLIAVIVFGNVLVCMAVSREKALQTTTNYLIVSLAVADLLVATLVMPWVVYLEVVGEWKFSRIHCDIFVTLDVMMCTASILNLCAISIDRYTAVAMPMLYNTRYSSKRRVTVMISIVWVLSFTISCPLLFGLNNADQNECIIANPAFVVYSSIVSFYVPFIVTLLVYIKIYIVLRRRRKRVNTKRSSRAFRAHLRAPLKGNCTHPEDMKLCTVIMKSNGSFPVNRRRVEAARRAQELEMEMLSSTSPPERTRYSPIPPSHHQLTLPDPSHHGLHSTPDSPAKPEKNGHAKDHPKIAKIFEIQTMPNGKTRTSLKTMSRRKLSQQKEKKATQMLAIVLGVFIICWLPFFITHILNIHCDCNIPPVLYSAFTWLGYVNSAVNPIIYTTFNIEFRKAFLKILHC
In test [2] the target is T2, hSSTR2 (Homo sapiens, UniProt P30874).
T2 construct: host or cells: 'Cells expressing hSSTR2'
T2 sequence (P30874 whole entry): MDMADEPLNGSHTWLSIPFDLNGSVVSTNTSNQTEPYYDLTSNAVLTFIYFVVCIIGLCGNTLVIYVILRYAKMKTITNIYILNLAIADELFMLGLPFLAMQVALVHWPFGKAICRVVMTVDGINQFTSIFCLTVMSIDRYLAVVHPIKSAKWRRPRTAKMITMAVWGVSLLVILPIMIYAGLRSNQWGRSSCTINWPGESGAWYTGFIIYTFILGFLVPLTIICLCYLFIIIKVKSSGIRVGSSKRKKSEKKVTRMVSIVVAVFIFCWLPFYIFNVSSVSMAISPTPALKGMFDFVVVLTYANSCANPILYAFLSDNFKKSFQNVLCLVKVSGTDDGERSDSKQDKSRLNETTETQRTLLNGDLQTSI
Nature of the test: Somatostatin receptor radioligand binding assay (hSSTR2).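 Also: radioligand displacement on membranes of CHO-K1 cells stably transfected with human SSTR2, specific binding taken as total minus binding left with 1000 nM SRIF-14.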 The conditions noted are these: CHO-K1 cell membranes; 0.05 nM [125I-Tyr]-seglitide; 60 minutes at 25°C; read-out: hSSTR2 Ki (nM) ± SEM.
Protocol: (§5) The affinities of a test compound for the human somatostatin receptors were determined by radioligand binding assays in CHO-K1 cells stably transfected with each of the human somatostatin receptor subtypes, hSSTR1-5. […] Clonal cell lines stably expressing each of the somatostatin receptors were obtained by transfection into CHO-K1 cells (ATCC) and subsequently selected with culture media containing 0.8 mg/mL of G418 (Life Technologies).
(§6) Membranes for in vitro receptor binding assays were obtained by the following procedures. […] The supernatant containing the plasma membranes was centrifuged at 100,000 x g for 30 minutes and the pellet was resuspended in buffer containing 20 mM glycine-glycine, 1 mM MgCl2, 250 mM sucrose, pH 7.2, for storage at -80°C.
(§7) For the SSTR1, 2 and 5 assays, membranes and various concentrations of test compounds were incubated in 96-well plates for 60 minutes at 25°C with 0.05 nM [^125I-Tyr^11]-SRIF-14 (for hSSTR1; PerkinElmer Life Science), 0.05 nM [^125I-Tyr]-seglitide (for hSSTR2; PerkinElmer Life Science) or 0.05 nM [^125I-Tyr]-[DPhe-cyclo(Cys-Tyr-DTrp-Lys-Val-Cys)-Thr-NH2] (for hSSTR5; PerkinElmer Life Science) in 50 mM HEPES, 0.2% BSA, 0.1 mM MgCl2, pH 7.5.

Another test deals with T3, hSSTR5 (Homo sapiens, UniProt P35346).
T3 construct: expressed in transfected cells; host or cells: CHO-K1 (ATCC), pcDNA3.1, G418-selected clonal line; membranes
T3 sequence (P35346 whole entry): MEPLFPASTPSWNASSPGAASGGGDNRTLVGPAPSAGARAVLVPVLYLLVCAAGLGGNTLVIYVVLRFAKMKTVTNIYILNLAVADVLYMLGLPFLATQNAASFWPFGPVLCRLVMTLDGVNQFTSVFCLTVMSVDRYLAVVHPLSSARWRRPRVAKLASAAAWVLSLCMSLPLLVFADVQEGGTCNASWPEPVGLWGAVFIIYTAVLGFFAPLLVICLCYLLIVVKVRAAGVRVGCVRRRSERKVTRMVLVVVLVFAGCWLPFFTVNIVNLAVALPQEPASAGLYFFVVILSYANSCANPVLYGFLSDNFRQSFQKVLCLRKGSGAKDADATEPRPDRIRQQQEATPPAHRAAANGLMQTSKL
Put plainly: Somatostatin receptor radioligand binding assay (hSSTR5). The conditions noted are these: CHO-K1 cell membranes; 0.05 nM [125I-Tyr]-[DPhe-cyclo(Cys-Tyr-DTrp-Lys-Val-Cys)-Thr-NH2]; 60 minutes at 25°C; read-out: hSSTR5 Ki (nM) ± SEM.

Test [3] concerns the target T1, hDRD2. Put plainly: biochemical. More on the design: expressed in transfected cells; host or cells: CHO-K1, pcDNA3.1/GS, zeocin-selected clonal line; membranes. Particulars: CHO-K1 cell membranes; […] [3H]-spiperone; 60 minutes at 25°C; read-out: hDRD2 Ki (nM) ± SEM. It counts as binding.
The next test addresses T4, hSSTR1 (Homo sapiens, UniProt P30872).
T4 construct: expressed in transfected cells; host or cells: CHO-K1 (ATCC), pcDNA3.1, G418-selected clonal line; membranes
Nature of the test: Somatostatin receptor radioligand binding assay (hSSTR1). Particulars: CHO-K1 cell membranes; 0.05 nM [125I-Tyr11]-SRIF-14; 60 minutes at 25°C; read-out: hSSTR1 Ki (nM) ± SEM.

Test [4] has as its target T2, hSSTR2. Nature of the test: Intracellular calcium mobilization assay (FLIPR Calcium 4), hSSTR2.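 Also: agonist activity measured in cells expressing hSSTR2, seeded in 384-well plates, loaded with Calcium 4 dye, read-out as rise in intracellular calcium.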 It counts as cell-based. Particulars: receptor not named. (In general: Calcium assays in cells follow changes in intracellular calcium, usually with a dye or a luminescent sensor.)
Another test addresses T5, hSSTR3 (Homo sapiens, UniProt P32745).
T5 construct: expressed in transfected cells; host or cells: CHO-K1 (ATCC), pcDNA3.1, G418-selected clonal line; membranes
Nature of the test: Somatostatin receptor radioligand binding assay (hSSTR3). Particulars: CHO-K1 cell membranes; 0.05 nM [125I-Tyr11]-SRIF-14; 60 minutes at 25°C; read-out: hSSTR3 Ki (nM) ± SEM. The protocol: (§1) The affinities of a test compound for the human somatostatin receptors were determined by radioligand binding assays in CHO-K1 cells stably transfected with each of the human somatostatin receptor subtypes, hSSTR1-5. The cDNA coding sequences of hSSTR1 (GenBank accession No. NM_001049.1), hSSTR2 (GenBank accession No. XM_012697.1), hSSTR3 (GenBank accession No. XM_009963.1), hSSTR4 (GenBank accession No. NM_001052.1), and hSSTR5 (GenBank accession No. XM_012565.1) were subcloned into the mammalian expression vector pcDNA3.1 (Life Technologies). Clonal cell lines stably expressing each of the somatostatin receptors were obtained by transfection into CHO-K1 cells (ATCC) and subsequently selected with culture media containing 0.8 mg/mL of G418 (Life Technologies).
(§2) Membranes for in vitro receptor binding assays were obtained by the following procedures. CHO-K1 cells expressing one of the somatostatin receptors were homogenized in ice-cold buffer with 10 mM Tris-HCl, 5 mM EDTA, 3 mM EGTA, 1 mM phenylmethylsuphonyl fluoride, pH 7.6, using Polytron PT10-35GT (Kinematica) at 18,000 rpm for 30 seconds and centrifuged at 500 x g for 10 minutes. The supernatant containing the plasma membranes was centrifuged at 100,000 x g for 30 minutes and the pellet was resuspended in buffer containing 20 mM glycine-glycine, 1 mM MgCl2, 250 mM sucrose, pH 7.2, for storage at -80°C.
(§3) For the hSSTR3 and 4 assays, membranes and various concentrations of test compounds were incubated in 96-well plates for 60 minutes at 25°C with 0.05 nM [^125I-Tyr^11]-SRIF-14 (PerkinElmer Life Science) in 50 mM HEPES, 0.2% BSA, 5 mM MgCl2, 200 KIU/mL trasylol, 0.02 mg/mL bacitracin, and 0.02 mg/mL phenylmethylsuphonyl fluoride, pH 7.5.
(§4) The incubations were terminated by rapid filtration through GF/C glass microfiber filter plates (pre-wet with 0.3% polyethyleneimine and 0.1 % BSA) using a 96-well cell harvester (Brandel). Plates were washed six times with 1 mL/well aliquots of ice-cold buffer containing 50 mM Tris buffer, pH 7.7. Specific binding was defined as the total radioligand bound minus the bound in the presence of 1000 nM SRIF-14.

In a further test the target is T6, hSSTR4 (Homo sapiens, UniProt P31391).
T6 construct: expressed in transfected cells; host or cells: CHO-K1 (ATCC), pcDNA3.1, G418-selected clonal line; membranes
T6 sequence (P31391 whole entry): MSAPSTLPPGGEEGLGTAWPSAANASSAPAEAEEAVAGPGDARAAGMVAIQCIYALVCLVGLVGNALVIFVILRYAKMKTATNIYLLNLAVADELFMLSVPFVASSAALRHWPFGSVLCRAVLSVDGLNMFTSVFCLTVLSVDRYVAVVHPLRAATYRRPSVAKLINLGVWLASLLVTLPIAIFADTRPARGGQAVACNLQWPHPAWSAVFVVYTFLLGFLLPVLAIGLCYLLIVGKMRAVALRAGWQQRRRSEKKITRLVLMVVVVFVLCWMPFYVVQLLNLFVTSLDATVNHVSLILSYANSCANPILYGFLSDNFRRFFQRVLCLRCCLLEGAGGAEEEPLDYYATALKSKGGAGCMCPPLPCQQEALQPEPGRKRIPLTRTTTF
Nature of the test: Somatostatin receptor radioligand binding assay (hSSTR4). The conditions noted are these: CHO-K1 cell membranes; 0.05 nM [125I-Tyr11]-SRIF-14; 60 minutes at 25°C; read-out: hSSTR4 Ki (nM) ± SEM. Here is the method:
as §1, §2, §3, §4

Test [5] relates to pituitary tumor cells of acromegalic patients presenting with macroadenoma. Nature of the test: Human pituitary adenoma cell growth hormone release assay. It counts as cell-based. Particulars: incubated for 18 hours; Growth hormone levels in the medium by AlphaLISA; Figure 5. The protocol:
• Figure 1 is a graph showing the Growth hormone suppressing activity of Compound 4 (see Table I hereinbelow for its chemical name and its corresponding structural representation) on pituitary tumor cells of acromegalic patients presenting with macroadenoma. Various concentrations of Compound 4 were added to the medium and the cells were incubated for 18 hours before measurement of Growth hormone levels in the medium using the AlphaLISA Growth Hormone Immunoassay Research kit (PerkinElmer). • Figure 2 is a graph showing the Growth hormone suppressing activity of Compounds 5 , 6, and 7 (see Table I hereinbelow for their chemical name and their corresponding structural representation) on pituitary tumor cells of acromegalic patients presenting with macroadenoma. Various concentrations of Compounds 5, 6, and 7 were added to the medium and the cells were incubated for 18 hours before measurement of Growth hormone levels in the medium using the AlphaLISA Growth Hormone Immunoassay Research kit (PerkinElmer). • Figure 3 is a graph showing the Growth hormone suppressing activity of Compounds 4, 6, 7, 8, and 9 (see Table I hereinbelow for their chemical name and their corresponding structural representation) on pituitary tumor cells of acromegalic patients presenting with macroadenoma. […]
On the technique in general: In Alpha technology, singlet oxygen from a donor bead excites a nearby acceptor bead.
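For Emax in this document: agonist activity at human DRD2 in DRD2-expressing cells, read as intracellular calcium mobilization with a FLIPR Calcium 4 fluorescent dye.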

T4 sequence (P30872 whole entry): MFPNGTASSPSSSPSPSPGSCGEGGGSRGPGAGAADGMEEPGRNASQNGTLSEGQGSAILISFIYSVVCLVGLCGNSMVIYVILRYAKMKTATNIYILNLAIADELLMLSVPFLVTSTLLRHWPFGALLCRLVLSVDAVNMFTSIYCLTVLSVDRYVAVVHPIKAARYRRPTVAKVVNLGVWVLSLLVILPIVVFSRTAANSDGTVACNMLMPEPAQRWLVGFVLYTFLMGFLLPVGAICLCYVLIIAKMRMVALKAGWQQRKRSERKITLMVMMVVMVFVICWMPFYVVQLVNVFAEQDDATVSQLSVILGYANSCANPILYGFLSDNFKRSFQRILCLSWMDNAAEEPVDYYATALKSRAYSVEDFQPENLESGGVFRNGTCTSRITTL
T5 sequence (P32745 whole entry): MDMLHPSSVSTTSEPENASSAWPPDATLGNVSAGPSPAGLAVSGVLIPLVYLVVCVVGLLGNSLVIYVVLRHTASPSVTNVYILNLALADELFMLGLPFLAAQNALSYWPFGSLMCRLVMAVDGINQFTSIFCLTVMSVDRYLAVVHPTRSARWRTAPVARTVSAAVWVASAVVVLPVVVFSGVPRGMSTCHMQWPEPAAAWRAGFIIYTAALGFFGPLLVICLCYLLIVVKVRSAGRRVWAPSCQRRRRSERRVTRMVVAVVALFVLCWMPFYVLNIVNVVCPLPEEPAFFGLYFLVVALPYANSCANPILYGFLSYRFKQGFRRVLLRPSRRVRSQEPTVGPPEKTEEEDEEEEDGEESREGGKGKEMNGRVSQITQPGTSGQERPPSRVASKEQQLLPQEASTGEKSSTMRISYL
Protocol for hSSTR1: as §5, §6, §7

With `C[C@@H](O)[C@@H]1NC(=O)[C@H](CCCCN)NC(=O)[C@@H](Cc2c[nH]c3ccccc23)NC(=O)[C@H](Cc2ccncc2)NC(=O)[C@H](Cc2ccccc2)NC(=O)[C@H](CCCNC(=N)N)NC(=O)[C@H](NC[C@H](Cc2ccc(O)cc2)NC(=O)CSC[C@@H]2C[C@@H]3c4cccc5[nH]cc(c45)C[C@H]3N(C)C2)CCCCNC(=O)[C@H](Cc2ccccc2)NC1=O` [Compound 4, Dop1-Tyr-psi(CH2NH)-cyclo(DLys-Arg-Phe-4Pal-DTrp-Lys-Thr-Phe)], the Emax on hDRD2 [1] is 106 ± 2.4%. For the same compound, the Ki at hSSTR2 [2] was 0.12 ± 0.01 nM; on hSSTR5, 0.92 ± 0.1 nM; at hDRD2 [3], 182.5 ± 1.7 nM; on hSSTR1, 38.1 ± 12.5 nM; on hSSTR3 it was 10.6 ± 0.5 nM; on hSSTR4, 93.5 ± 47.7 nM. Further, the “improvement in EC50 and/or %Emax over Reference Compound B” value at hSSTR2 [4] is on record as “statistically significant improvement in EC50 and/or %Emax”. Moreover, in [5], the “Growth hormone suppressing activity compared to the parent somatostatin analogs” value is “enhanced Growth hormone suppressing activity”.

For `C[C@@H](O)[C@@H]1NC(=O)[C@H](CCCCN)NC(=O)[C@@H](Cc2c[nH]c3ccccc23)NC(=O)[C@H](Cc2ccccc2)NC(=O)[C@H](Cc2ccccc2)NC(=O)[C@H](CCCNC(=N)N)NC(=O)[C@H](NC[C@H](Cc2ccc(O)cc2)NC(=O)CSC[C@@H]2C[C@@H]3c4cccc5[nH]cc(c45)C[C@H]3N(C)C2)CCCCNC(=O)[C@H](Cc2ccc(F)cc2)NC1=O` [Compound 5, Dop1-Tyr-psi(CH2NH)-cyclo(DLys-Arg-Phe-Phe-DTrp-Lys-Thr-4FPhe)], the Emax on hDRD2 [1] is 98.7 ± 2.3%. In addition, the Ki came to 0.34 ± 0.09 nM on hSSTR2 [2]; 1.65 ± 0.8 nM on hSSTR5; 28.5 ± 12.8 nM at hDRD2 [3]; 9 ± 0.3 nM at hSSTR1; 1.5 ± 0.3 nM on hSSTR3; 25.2 ± 9 nM at hSSTR4. Besides, the “improvement in EC50 and/or %Emax over Reference Compound B” value on hSSTR2 [4] is reported as “statistically significant improvement in EC50 and/or %Emax”. Further, the “Growth hormone suppressing activity compared to the parent somatostatin analogs” value in test [5] is listed as “enhanced Growth hormone suppressing activity”.
